Data set [1] in a line: Cytotoxicity against human A549 cells incubated for 48 hrs by CellTiter-Glo Luminescent Cell Viability Assay. The format is toxicity, cell-based.
Another data set concerns Influenza A virus. Put plainly: Anti-viral activity against Influenza A virus H7N1 pseudotype infected in human A549 cells assessed as inhibition of viral entry incubated for 48 hrs by Neolite Reporter Gene Assay. Type of data set: functional, organism-based. The following applies: H7N1, A549, 48 h.
A short description of data set [2]: Metabolic stability in human liver microsomes assessed as compound remaining at 2 to 10 uM measured after 60 mins in absence of NADPH by LC-MS/MS analysis. Type of data set: ADME, Microsome. The following applies: dose 2-10 µM, read-out: Stability.
A short description of data set [3]: Metabolic stability in human plasma at 2 uM measured after 60 mins by LC-MS/MS analysis. Particulars: 1 h. Type of data set: ADME, cell-free.
Data set [4] in a line: Metabolic stability in BALB/c mouse liver microsomes assessed as compound remaining at 2 to 10 uM measured after 60 mins in presence of NADPH by LC-MS/MS analysis. The format is ADME, Microsome. Particulars: dose 2-10 µM, read-out: Stability.
Data set [5] in a line: Metabolic stability in BALB/c mouse liver microsomes assessed as compound remaining at 2 to 10 uM measured after 60 mins in absence of NADPH by LC-MS/MS analysis. Type of data set: ADME, Microsome. Particulars: dose 2-10 µM, read-out: Stability.
A short description of data set [6]: Metabolic stability in human liver microsomes assessed as compound remaining at 2 to 10 uM measured after 60 mins in presence of NADPH by LC-MS/MS analysis. Type of data set: ADME, Microsome. Particulars: dose 2-10 µM, read-out: Stability.
The nature of data set [7]: Metabolic stability in mouse plasma at 2 uM measured after 60 mins by LC-MS/MS analysis. The format is ADME, cell-free. Particulars: 1 h.

In the case of `Fc1ccc(-c2nc3ncccn3c2NC2CCCCC2)cc1`, in data set [1], the cytotoxic concentration (CC50) at 48 h is > 100 µM. In addition, in the data set with Influenza A virus, the EC50 turned out to be 0.04 µM.
On the same counts, the results for `CCOc1ccc(-c2nc3nc(C)cc(C)n3c2NC2CCCCC2)cc1OC` are > 25 µM and 5.33 µM.
With `Cc1cc(C)n2c(NC34CC5CC(C)(CC(C)(C5)C3)C4)c(-c3ccccc3)nc2n1`, the CC50 at 48 h in data set [1] stood at 32 µM. The concentration giving a half-maximal response (EC50) with Influenza A virus was 13 µM.
In the case of `COCOc1ccc(-c2nc3ncc(Cl)cn3c2NC2CCCCCC2)cc1`, the CC50 at 48 h in data set [1] is > 100 µM. The remaining at 1 h, up to 10 µM in data set [2] stood at 111%; in data set [4] it was 2.7%; in data set [5], 111%; in data set [6], 13.8%. Further, the Stability result in data set [3] and in data set [7] was “Stable” each time. Also, the half-maximal effective concentration (EC50) with Influenza A virus was found to be 0.74 µM.
As to `COCOc1ccc(-c2nc3ncccn3c2NC2CCCCCC2)cc1`, in data set [1], the midpoint of cytotoxicity, the CC50 at 48 h, lay at 52 µM. Further, the EC50 in the data set on Influenza A virus stood at 0.16 µM.
`Fc1cccc(-c2nc3ncccn3c2NC2CCCCC2)c1`: the CC50 at 48 h in data set [1] is > 25 µM. In the data set on Influenza A virus, the 50% effective concentration (EC50) stood at 0.39 µM.
On the same counts, the results for `Cc1cc(C)n2c(NC3CCCCC3)c(-c3ccc(Cl)s3)nc2n1` are 14.8 µM and 2.26 µM.
On the same counts, the results for `COc1ccc(COc2ccc(-c3nc4ncccn4c3NC3CCCCC3)c(F)c2)cc1` are 39 µM and 2.1 µM.
On the same counts, the results for `Cc1cc(C)n2c(NC3CCCCC3)c(-c3ccncc3)nc2n1` are > 25 µM and 0.89 µM.
Consider `COCOc1ccc(-c2nc3ncccn3c2NC2CCCCC2)c(F)c1`, for which the cytotoxic concentration (CC50) at 48 h in data set [1] is > 100 µM. Besides, the remaining at 1 h, up to 10 µM in data set [2] amounted to 103%; in data set [4], 9.2%; in data set [5], 107%; in data set [6] it was 62.3%. In addition, the Stability entry in data set [3] and in data set [7] was “Stable” throughout. Besides, the EC50 in the data set with Influenza A virus came to 0.08 µM.
For the compound `Fc1ccc(-c2nc3ncccn3c2NC2CCCCC2)cc1N1CCOCC1`, in data set [1], the CC50 at 48 h was > 25 µM. In addition, the EC50 in the data set with Influenza A virus was found to be 0.68 µM.
As to `Fc1cc(-c2nc3ncc(Cl)cn3c2NC2CCCCC2)ccc1N1CCOCC1`, the CC50 at 48 h in data set [1] is > 100 µM. The EC50 in the data set with Influenza A virus is 1.61 µM.
For `Fc1ccc(-c2nc3ncc(Cl)cn3c2NC2CCCC2)cc1F`, in that order: 25 µM and 8.3 µM.
On the same counts, the results for `Cc1cc(C)n2c(NC3CCCCC3)c(-c3ccc(Cl)c(Cl)c3)nc2n1` are 12 µM and 2.51 µM.
On the same counts, the results for `COc1cc(OC)cc(-c2nc3ncccn3c2NC2CCCCC2)c1` are 47 µM and 1.89 µM.
In turn, `CN1CCN(c2ccc(-c3nc4ncc(Cl)cn4c3NC3CCCCC3)cc2F)CC1` gave a CC50 at 48 h in data set [1] of 31 µM. The EC50 in the data set on Influenza A virus is 1.49 µM.
For `Oc1ccc(-c2nc3ncc(Br)cn3c2NC2CCCCCC2)cc1`, in that order: 45 µM and 3.65 µM.
On to `COc1cc(-c2nc3nc(C)cc(C)n3c2NC2CCCCC2)ccc1F`, for which, in data set [1], the CC50 at 48 h is > 25 µM. Further, the EC50 in the data set with Influenza A virus was 2.06 µM.
As to `COCOc1ccc(-c2nc3ncccn3c2NC2CCCCC2)cc1`, the 50% cytotoxic concentration (CC50) at 48 h in data set [1] was > 100 µM. In addition, the remaining at 1 h, up to 10 µM worked out at 105% in data set [2], 2.2% in data set [4], 109% in data set [5] and 63.7% in data set [6]. Moreover, the Stability entry in data set [3] and in data set [7] was “Stable” each time. Besides, in the data set on Influenza A virus, the EC50 came out at 0.09 µM.
In turn, `COCOc1cc(F)c(-c2nc3ncc(Cl)cn3c2NC2CCCCC2)c(OC)c1` displayed a CC50 at 48 h in data set [1] of 48 µM. Moreover, the EC50 in the data set on Influenza A virus amounted to 6.65 µM.
As to `Cc1cc(C)n2c(NC3CCCCC3)c(-c3nccs3)nc2n1`, the CC50 at 48 h in data set [1] is > 25 µM. For the same compound, the remaining at 1 h, up to 10 µM in data set [2] stood at 101%; in data set [4], 29.4%; in data set [5] it was 99.9%; in data set [6], 19.8%. Besides, the Stability result in data set [3] and in data set [7] was “Stable” in each case. For the same compound, in the data set on Influenza A virus, the 50% effective concentration (EC50) turned out to be 0.49 µM.
As for `COCOc1ccc(-c2nc3ncc(Br)cn3c2NC2CCCCCC2)cc1`, the CC50 at 48 h in data set [1] was > 100 µM. Also, the EC50 in the data set with Influenza A virus was found to be 1.31 µM.
Take `Cc1cc(C)n2c(NC3CCCCC3)c(-c3ccccc3)nc2n1`: in data set [1], it took 59 µM to reach half-maximal cytotoxicity (CC50 at 48 h). Further, the half-maximal effective concentration (EC50) in the data set with Influenza A virus came to 2.55 µM.
For `COc1ccc(-c2nc3sccn3c2NC2CCCCC2)cc1`, in that order: 63.1 µM and 3.02 µM.
For `Clc1cnc2nc(-c3ccccc3)c(NC3CCCCC3)n2c1`, in that order: > 100 µM and 13 µM.
The compound `Fc1ccc(-c2nc3ncccn3c2NC2CCCCC2)c(F)c1` yielded a CC50 at 48 h in data set [1] of 72 µM. Moreover, the remaining at 1 h, up to 10 µM in data set [2] was found to be 104%; in data set [4], 22.8%; in data set [5], 108%; in data set [6] it was 33.4%. Further, the Stability result in data set [3] and in data set [7] was “Stable” throughout. Also, the EC50 in the data set with Influenza A virus was 0.09 µM.
In data set [1], `Oc1ccc(-c2nc3ncc(Cl)cn3c2NC2CCCCCC2)cc1` displayed a half-maximal cytotoxic concentration (CC50) at 48 h of 50 µM. Besides, the EC50 with Influenza A virus came out at 1.09 µM.
Turning to `CN1CCOc2cc(-c3nc4ncc(Cl)cn4c3NC3CCCCC3)ccc21`, the cytotoxic concentration (CC50) at 48 h in data set [1] was > 100 µM. The half-maximal effective concentration (EC50) in the data set with Influenza A virus was 2.05 µM.
For `Cc1cc(C)n2c(NC3CCCCC3)c(-c3cccc4c3OC(F)(F)O4)nc2n1`, in data set [1], the CC50 at 48 h was > 25 µM. For the same compound, the EC50 with Influenza A virus was 6.27 µM.
With `Cc1cc(C)n2c(NC3CCCCC3)c(-c3ccc(F)c(N4CCOCC4)c3)nc2n1`, the CC50 at 48 h in data set [1] is > 25 µM. In addition, in the data set with Influenza A virus, the EC50 amounted to 4.57 µM.
Turning to `Cc1cc(C)n2c(NC3CCCCC3)c(-c3ccnc(Cl)c3)nc2n1`, the CC50 at 48 h in data set [1] is > 25 µM. Further, the remaining at 1 h, up to 10 µM in data set [2] worked out at 114%; in data set [4], 6.8%; in data set [5] it was 105%; in data set [6], 0.5%. Besides, the Stability result in data set [3] and in data set [7] was “Stable” throughout. In the data set on Influenza A virus, the EC50 was 0.27 µM.
Take `Fc1ccc(-c2nc3ncc(Cl)cn3c2NC2CCCCC2)cc1F`: the CC50 at 48 h in data set [1] was > 100 µM. Moreover, the Stability result in data set [3] and in data set [7] was “Stable” throughout. In addition, the half-maximal effective concentration (EC50) in the data set on Influenza A virus is 0.26 µM.
On to `Fc1ccc(-c2nc3ncc(Cl)cn3c2NC2CCCCCC2)cc1F`, for which the CC50 at 48 h in data set [1] was > 100 µM. In addition, the remaining at 1 h, up to 10 µM was 97% in data set [2], 6.3% in data set [4], 101% in data set [5] and 2.1% in data set [6]. For the same compound, the Stability result in data set [3] and in data set [7] was “Stable” each time. For the same compound, in the data set with Influenza A virus, the EC50 came out at 0.12 µM.
For `CC(C)Oc1ccc(-c2nc3ncccn3c2NC2CCCCC2)cc1`, the cytotoxic concentration (CC50) at 48 h in data set [1] was > 100 µM. The EC50 with Influenza A virus amounted to 1.45 µM.
On the same counts, the results for `Fc1cc(N2CCOCC2)ccc1-c1nc2ncc(Cl)cn2c1NC1CCCCC1` are 54 µM and 2.49 µM.
For `Cc1ccc(Cl)c(-c2nc3ncccn3c2NC2CCCCC2)c1F`, in that order: 27 µM and 1.26 µM.
On the same counts, the results for `Cc1cc(C)n2c(NC3CCCCC3)c(-c3ccc(F)c(F)c3)nc2n1` are > 25 µM and 1.3 µM.
The compound `CC12CC3CC(C)(C1)CC(Nc1c(-c4ccc(F)c(F)c4)nc4ncccn14)(C3)C2` displayed a CC50 at 48 h in data set [1] of 15.5 µM. Further, the EC50 in the data set with Influenza A virus is 9.18 µM.
For the compound `COCCOCOc1ccc(-c2nc3ncc(Cl)cn3c2NC2CCCCC2)cc1`, the CC50 at 48 h in data set [1] is > 100 µM. In the data set with Influenza A virus, the EC50 turned out to be 0.86 µM.
With `CCN(c1c(-c2ccc(F)c(F)c2)nc2ncccn12)C1CCCCC1`, in data set [1], the half-maximal cytotoxic concentration (CC50) at 48 h is > 100 µM. For the same compound, the remaining at 1 h, up to 10 µM in data set [2] is 110%; in data set [4], 0%; in data set [5], 103%; in data set [6], 1%. Also, the 50% effective concentration (EC50) in the data set with Influenza A virus was determined as 12.8 µM.
In the case of `c1ccc(-c2nc3ncccn3c2NC2CCCC2)cc1`, the half-maximal cytotoxic concentration (CC50) at 48 h in data set [1] is > 100 µM. Further, the EC50 in the data set on Influenza A virus is 0.35 µM.
For `Cc1cc(C)n2c(NC3CCCCC3)c(-c3cc(Br)ncc3F)nc2n1`, in that order: > 25 µM and 3.28 µM.
In the case of `Fc1cc(-c2nc3ncc(Cl)cn3c2NC2CCCCC2)ccc1N1CCCC1`, in data set [1], the CC50 at 48 h is > 100 µM. For the same compound, the EC50 in the data set on Influenza A virus was determined as 12.5 µM.
The compound `COCOc1ccc(-c2nc3ncc(Cl)cn3c2NC2CCCCC2)c(F)c1` showed a 50% cytotoxic concentration (CC50) at 48 h in data set [1] of 50 µM. In addition, the remaining at 1 h, up to 10 µM in data set [2] is 106%; in data set [4], 14.2%; in data set [5], 102%; in data set [6], 2.6%. Also, in the data set with Influenza A virus, the concentration for a half-maximal effect (EC50) came out at 3.04 µM.
For the compound `CN1CCN(c2ccc(-c3nc4ncc(Cl)cn4c3NC3CCCCC3)c(F)c2)CC1`, in data set [1], the midpoint of cytotoxicity, the CC50 at 48 h, lay at 46 µM. In addition, in the data set with Influenza A virus, the concentration giving a half-maximal response (EC50) came out at 1.26 µM.
For `COCOc1cccc(-c2nc3ncc(Cl)cn3c2NC2CCCCC2)c1F`, in that order: 51 µM and 3.04 µM.
